{"source": "patent US11033545B2", "about": "“Negative allosteric modulators of MGLUR5 for use in the treatment of mature brain damages” (Sinntaxis AB, priority 2016, dated 2021)", "type_in_all_cases": "in vivo", "key": {"male Sprague Dawley rats [1]": {"test_system": "male Sprague Dawley rats", "test": "Paw placement test after photothrombotic stroke in the rat", "conditions": "rat", "protocol": "Animals. All experiments were carried out with the approval of the Malmö-Lund animal review board and according to the ARRIVE guidelines. Animals were housed under reverse light conditions, with the testing performed during the dark period when the rats are active. The experiments were carried out on male Sprague Dawley rats (11 weeks of age, Charles River, Scanbur A/S Karlslunde, Denmark). The studies were subjected to randomization and carried out in a blinded fashion to the investigators who performed the surgeries and behavioral assessment.\nAdministration of compound. The compound was injected as a bolus dose of 1 ml/kg into the lower quadrant of the abdomen.\n(§1) Experimental stroke. The animals were anesthetized by isoflurane (approximately 2% in 02 under spontaneous ventilation) and placed into stereotaxic frame. Temperature was monitored during surgery using a rectal temperature probe and animals were kept at 37.0-37.5±0.2° C. by means of a heating pad with feedback control. A sagittal skin incision was made and subcutaneous connective tissue was removed and the skull was dried. Thereafter, the photosensitizer dye Rose Bengal (0.5 mL at 10 mg/mL) was infused in the tail vein. Two minutes after injection, the skull was illuminated with cold light (Schott, KL 1500 LCD) on an area of 8 to 4.5 mm for 15 min (from +4 to −4 mm antero-posterior and from 0.5 to 5 mm on the left from bregma). Thereafter the tail and the scalp incisions were sutured and the rats transferred to their home cage. The functional deficit was assessed 2 h after the onset of the stroke using the limb placement test and only the animals having a score 0, for both fore- and hindlimb contralateral to the brain damaged hemisphere were used for the study.\nTest of neurological function. The paw placement test. The cortical damage inflicted by the phothrombosis, causes a deficit due to neuronal loss in the sensori-motor area and depression of functions in neuronal networks in the vicinity of the lesion. […] This test provides information on the tactile/proprioceptive response to limb stimulation. Animals were placed with all 4 paws on the table top, and the paws to be tested along the edge. The rat was moved over the edge so the paws to be tested loose contact with the table surface. The ability of the animals to place the limb back onto the table surface when the rat was moved towards the edge was evaluated. Importantly, the head was held at 45° angle, so that visual and whisker/snout stimulation was prevented. A prompt placement of the limb onto the table was scored as 1. Incomplete placing of the limb was scored as 0.5, and complete extension of the limb and paw was scored as 0. In order to obtain groups with a similar functional deficit prior to treatment of the animals with drugs or vehicle, selective sorting was performed on day 2 after experimental stroke, a time point of recovery when the infarct development had subsided.\nAdministration of the compounds. The compounds were administrated orally (p.o.) by catheters placed in the stomach. The amount of solutions were 0.2 ml/rat and 0.1 ml/mice.\nInduction of stroke was as made as in Example 1 for rats and as in Example 2 in mice. Assessment of neurological function was performed as in Example 1 for rats and as in Example 2 for mice. The animals were perfused and immunostained as in Example 1, and the infarct size was assessed as in Example 1.\nInduction of stroke, assessment of neurological function, perfusion of animals, immunostaining and assessment of infarct size were made as in Example 1."}, "male Sprague Dawley rats [2]": {"test_system": "male Sprague Dawley rats", "test": "Infarct size after photothrombotic stroke in the rat", "conditions": "5 mg/kg i.p., FIG. 1B", "protocol": "as §1, with “Two minutes after injection, the skull was illuminated with cold light (Schott, KL 1500 LCD) on an area of 8 to 4.5 mm for 15 min (from +4 to −4 mm antero-posterior and from 0.5 to 5 mm on the left from bregma). Thereafter the tail and the scalp incisions were sutured and the rats transferred to their home cage.” left out, “study. […]” for “study.”\nInfarct measurements. […] Twelve slices 1 mm apart, were scanned, and the non-lesioned area of the infarcted hemisphere and the non-lesioned contralateral hemisphere were outlined and measured using the ImageJ software (National Institute of Health, USA). Infarct volume (mm^3) was determined by subtracting the area of the non-lesioned ipsilateral hemisphere from that of the intact contralateral hemisphere, and calculated by volumetric integration for each animal."}, "male C57/BL6 mice": {"test_system": "male C57/BL6 mice", "test": "Paw placement test after photothrombotic stroke in the mouse"}, "[3]": {"conditions": "time course of recovery of function, treatment starting 2 days after stroke"}}}
{"smiles": "Cc1nc(C#Cc2cccnc2)cs1", "note": "[SIN007, 3-[(2methyl-1,3-thiazol-4-yl)ethynyl]pyridine]", "values": [{"measurement": "paw placement score (recovery of paw placement function)", "setting": "male Sprague Dawley rats [1]; 5 mg/kg i.p. daily starting 2 days after stroke, assessed at 14 days after stroke, vs vehicle, p<0.001, FIG. 1A", "result": "almost complete recovery of paw placement function"}, {"measurement": "persistence of recovery of function after termination of the treatment", "setting": "male Sprague Dawley rats [1]; after 5 days treatment, FIG. 1D", "result": "at least 7 days"}, {"measurement": "days of treatment for a maximal treatment effect", "setting": "male Sprague Dawley rats [1]; [3]", "result": 14, "unit": "days"}, {"measurement": "days of treatment required for a treatment effect", "setting": "male Sprague Dawley rats [1]; [3]", "result": "At least 4 days"}, {"measurement": "infarct size compared to vehicle", "setting": "male Sprague Dawley rats [2]", "result": "no difference in infarct size"}, {"measurement": "infarct size", "setting": "male Sprague Dawley rats [2]; animals of FIG. 1A", "result": "19.5±4.6", "unit": "mm^3"}, {"measurement": "recovery of function", "setting": "male C57/BL6 mice; 1 mg/kg i.p. daily for 3 days, standard housing, FIG. 2F", "result": "moderately enhances recovery of function"}, {"measurement": "recovery of function, combined with enriched environment", "setting": "male C57/BL6 mice; 1 mg/kg i.p. for 3 days plus housing in enriched environment, FIG. 2F", "result": "significantly improves recovery"}, {"measurement": "functional recovery (paw placement)", "setting": "male C57/BL6 mice; 5 mg/kg i.p. daily for 5 days starting 2 days after stroke, vs vehicle, p<0.01, FIG. 2A", "result": "strong recovery enhancing effect"}, {"measurement": "paw placement score after 5 days of treatment", "setting": "male C57/BL6 mice; SIN007 5 mg/kg i.p. alone, vs vehicle, FIG. 2D", "result": "recovered paw function"}]}
